Source: patent US11684592B2, “Multiresistant-tumour sensitiser” (Instituto Nacional de Neurologia Y Neurocirugia Manuel …, priority 2017, dated 2023)

How the values were obtained:
[1] = tested on: Keap1, Nrf2 and p62 in C6 cells; assay: Sequential immunofluorescence, co-location of Keap1-p62, Nrf2-p62 and Keap1-Nrf2; format: cell-based, rat; conditions: Cur-[G2]-OH 6, 45 or 90 µM, 24 hours
Procedure: Sequential immunofluorescence: For the protein co-location studies of Keap1-p62, Nrf2-p62 and Keap1-Nrf2, 5×10^3 C6 cells/well were grown in half-area 96 well plates and incubated for 24 hours. Subsequently, the cells were treated with Cur-[G2]-OH (6, 45 or 90 µM) and incubated for 24 hours. In control cells only DMEM medium was replaced by fresh medium. Then, cells were washed with cold PBS and fixed with paraformaldehyde (4% in PBS) or with a mix of methanol/acetone, with paraformaldehyde, cells were washed and permeabilized with PBST (this step was not performed on the cells fixed with methanol/acetone). Cells were washed again and blocked in BSA at 1% in PBST.
The cells were incubated in the first primary antibody (Keap1 or Nrf2) at 4° C. overnight, and subsequently washed and re-incubated with the fluorochrome-conjugated secondary antibody (Alexa fluor 488 Abcam® ab150129), in the dark for 1 hour at room temperature. They were washed and again blocked for 30 minutes with goat serum; The serum was removed and the solution of the second respective primary antibody (p62 or Nrf2) was placed. It was incubated at 4° C. overnight. The incubation of the secondary antibodies proceeded in the same manner as described before, but using the Alexa flour 647 antibody from Abcam® (ab150079). The nuclei were stained with Hoechst 33342 solution (0.1 μg/ml) and the images were captured on a Cytation 3® multimodal plate reader (Bio Tek®, Instruments Inc.), with the Gen5 2.06 program using DAPI filters (λ=377-447 nm), GFP (λ=469-525 nm) and Texas Red (λ=586-647 nm).

[2] = tested on: C6 cells; assay: Determination of Reactive Oxygen Species (ROS); format: cell-based, rat; conditions: 1 hour; for generation of ROS: curcumin 2, 15, 30 or 100 μM or Cur-[G2]-OH 6, 45, 90 or 300 μM, without NAC; for generation of ROS in the presence of N-acetyl Cysteine (NAC): with NAC 400 μM
Procedure: Intracellular generation of ROS was evaluated in real time by fluorescence microscopy using the ENZ-51011 detection kit (Enzo® Life Sciences). 5×10^3 cells per well were grown in half-area 96 wells plates (Costar 3595®) and incubated for 24 hours. Then, were incubated for 1 hour, with curcumin (2, 15, 30 or 100 μM), or Cur-[G2]-OH (6, 45, 90 or 300 μM) alone or in the presence of the ROS inhibitor N-Acetyl Cysteine (NAC, 400 μM) according to the manufacturer's instructions. As controls, pyocyanin (200 μM) was used as an inducer and NAC […] as an inhibitor, or DMEM medium with or without DMSO as a negative control. At the end of treatment, the test solutions were withdrawn, and the ROS detection solution was added. The plates were observed under bright field and fluorescence microscopy with the GFP filter (λ=469-525 nm), in the Cytation 3® multimodal reader (BioTek®, USA), and the images were captured and analyzed with the Gen5 2.06 program (BioTek®, USA). The experiments were performed five times.

[3] = tested on: normal cells; assay: Toxicity to normal cells; format: cell-based; conditions: high concentration
[4] = tested on: C6 cells; assay: Sensitization of tumor cells to oxidative stress (FeSO4), MTT cell viability; format: cell-based, rat
Procedure: C6 cells (1×10^5 cells/well) were seeded in 96 wells plates. At 24 h, a group of cells were treated with FeSO4 at concentrations of 50, 80, 100 and 150 μM or Cur-[G2]-OH at concentrations of 240 or 300 μM and incubated for an additional 24 hours.
Another group of cells were previously incubated by 2 h with the oxidizing agent FeSO4 at concentrations of 50, 80, 100 and 150 μM and subsequently washed for addition to cur-[G2]-OH at concentrations of 240 or 300 μM, continued to incubate until 24 h was completed. A last group of cells, first was treated with Cur-[G2]-OH at concentrations of 240 or 300 μM for 4 h and subsequently changed the medium and FeSO4 was added to concentrations of 50, 80, 100 or 150 μM continuing incubation for 20 hours more.
The colorimetric test based on the reduction of tetrazolium dye MTT (3-(4,5-dimethyltiazol-2-yl)-2,5-diphenyltetrazolium bromide) was used to determine cell viability (Terry L. et al. Cell Viability Assays. May 1, 2013). The formazan crystals were dissolved with a mixture of isopropanol/acetic acid and the absorbance was measured at 540 nm in a microplate reader (Molecular Devices, Sunnyvale, Calif., USA).
The data were statistically analyzed using a one-way ANOVA analysis, and Newman Keuls post-analysis for multiple comparisons (n=3, Mean=SEM).

[5] = tested on: C6 cells from rat glioma; assay: DNA fragmentation assay; format: cell-based; conditions: curcumin 100 μM or Cur-[G2]-OH 300 μM, 24 h
Procedure: To determine DNA fragmentation, C6 cells (1×10^6) were seeded in Petri dishes (100 mm) at a confluence of 70%. They were treated with curcumin (100 μM) or Cur-[G2]-OH (300 μM) and incubated for 24 and 48 hours. Controls were incubated with vehicle only (DMSO or PBS respectively).
The DNA was extracted using Trizol (Invitrogen® 15596-026), according to the supplier's specifications, and quantified on a spectrophotometer (Genesys 8®). 20 μg of DNA from each sample was deposited on a 1.5% agarose gel. Electrophoresis was performed at 100 V for 90 minutes. The gel was stained with the Hydragreen™ dye (ACTGene ACT-IDM604) and DNA detection was performed using the ethidium bromide filter and UV light on the Chemidoc-It TS2 imager photodocument (UVP, CA).

[6] = tested on: Beclin-1, p62, Nrf2, eIF2a and p-eIF2α in C6 cells; assay: Analysis of autophagy markers and Nrf2 pathway by Western blot; format: cell-based, rat; conditions: for levels of total eIF2-α (immunoblot) / phosphorylation of eIF2-α (p-eIF2-α, immunoblot): curcumin 2, 15 and 30 μM or Cur-[G2]-OH 6, 45 and 90 μM
Procedure: C6 cells were grown in 25 cm^2 culture bottles (Corning® N.Y.) to form a 70% confluent monolayer (approximately 4×10^6 cells) and treated with Cur-[G2]-OH (300 μM) for 24 hours. The cells were washed in cold PBS, and lysis buffer (50 mM Tris-HCl, 120 mM NaCl, 0.01% IGEPAL) was added with a protease inhibitor cocktail (Sigma® P8340) and centrifuged to recover the supernatant. Proteins were quantified by the Lowry method (Lowry et al. 1951).
[…] The membranes were blocked with skim milk and subsequently incubated with the respective primary antibody (Beclin1, ab62557; p62, ab91526; Nrf2, sc-30915; p-eIF2α, sc-12412; eIF2, sc-11386 or β-actin, sc-47778) under stirring overnight at 4° C. After incubation, the membranes were washed with a Tween 20 tris-base saline buffer (TBST) and incubated with the respective secondary antibody conjugated to horseradish peroxidase (SIGMA). The bands were visualized by chemiluminescence with the Western Blotting Luminol Reagent reagents (Santacruz Biotechnology®), and the ChemiDoc-It® TS2 Imaging System (UVP, LLC).

[7] = tested on: p62, Beclin1 or LC3 in C6 cells; assay: Analysis of autophagy markers by immunofluorescence (simple staining); format: cell-based, rat; conditions: Cur-[G2]-OH 3-150 μM, 6 and 24 hours
Procedure: Simple staining: 1×10^4 C6 cells/well were cultured with 100 μL of DMEM medium in 96-well plates and incubated 24 hours. Cells were treated with different concentrations of Cur-[G2]-OH (3, 6, 15, 30, 45, 90 and 150 μM), and incubated for 6 and 24 hours. Control cells were replaced only with fresh DMEM medium. The cells were washed with cold PBS and fixed with a mixture of methanol/acetone (1:1) for 5 minutes; they were washed with PBS and incubated with 1% BSA in PBST. Subsequently, they were incubated with the primary antibody (p62, Beclin1 or LC3) at 4° C. overnight. They were washed and incubated with the fluorochrome-conjugated secondary antibody (Abcam® ab150073 Alexa fluor 488) for 1 hour at room temperature. They were washed with PBS and the nucleus stained with Hoechst 33342 (0.1 μg/ml). The images were observed on a Cytation 3® multimodal plate reader and captured and analyzed with the Gen5® 2.06 program using the DAPI (λ=377-447 nm) and GFP (λ=469-525 nm) filters.

[8] = tested on: C6 cells; assay: Effect on glutathione (GSH) concentration, GT10 colorimetric test; format: cell-based, rat
Procedure: Reduced glutathione (GSH) intracellular concentration were measured by a colorimetric test using the GT10 (Oxford Biomedical Research® kit), following the manufacturer's instructions. […] The controls were incubated with DMEM media only. Absorbance was read at 400 nm in Cytation3 ® cell Imaging Multi-mode reader (BioTeck, USA). It is observed that at low concentrations of Cur-[G2]-OH, the synthesis of GSH is induced in C6 cells, but at high concentrations GSH synthesis is inhibited and decrease its concentration in cells.

[9] = tested on: C6 cells from rat glioma; assay: Determination of apoptotic death by dual staining with propidium iodide and Hoechst 33342; format: cell-based; conditions: curcumin 100 μM or Cur-[G2]-OH 300 μM, 24 or 48 hours
Procedure: C6 cells from rat glioma (American Tissue Culture Collection, Rockville, Md., U.S.A. ATCC® CCL-107™) cultured under standard conditions in DMEM medium supplemented with Bovine Fetal Serum and 15% horse serum were used for the experiments.
1×10^4 C6 cells/well were cultured with 100 μl of Dulbecco's Modified Eagle's Medium (DMEM) medium for 24 hours in 96-well plates. The cells were treated with curcumin (100 μM), or with Cur-[G2]-OH (300 μM), or with the respective vehicle as a control. After 24- or 48-hours post-treatment, the cells were fixed with a mixture of methanol/acetone (1:1) and stained with propidium iodide (0.5 μg/ml), washed and Hoechst 33342 dye was added (0.1 μg/ml) for staining the nuclei. Cells were observed on the Cytation 3® plate reader (BioTek® Instruments, Inc.) using the DAPI (λ=377-447 nm) and Texas Red (λ=586-647 nm) filters, and the images were captured and analyzed with the Gen5 2.06® program.

[10] = Stability in acidic pH of gastric juices; format: physicochemical
[11] = Cur-[G2]-OH 300 μM, 24 h, vs untreated cells

Structure (SMILES): COc1cc(/C=C/C(=O)/C=C(O)/C=C/c2ccc(OC(=O)C(C)(COC(=O)C(C)(CO)CO)COC(=O)C(C)(CO)CO)c(OC)c2)ccc1OC(=O)C(C)(COC(=O)C(C)(CO)CO)COC(=O)C(C)(CO)CO [Cur-[G-2]-OH]
- co-location Keap1-Nrf2 in the nucleus [1]: interaction of Keap1 with Nrf2 in this subcellular compartment is observed
- expression of Keap1 in nucleus and cytoplasm (immunofluorescence) [1]: significant levels are still detected, both in the nucleus and in the cytoplasm
- expression of Nrf2 in cytoplasm and nucleus (immunofluorescence) [1]: rapidly induces the loss of the expression of protein Nrf2 in the cytoplasm and the attenuation of the signal in the nucleus
- p62 localisation and co-location Keap1-p62 [1]: promotes the exclusion of p62 from the nucleus and its interaction with Keap1 in the cytoplasm and autophagosomes
- generation of ROS [2]: promotes the generation of ROS in a concentration-depending manner
- generation of ROS in the presence of N-acetyl Cysteine (NAC) [2]: not substantially modified with the use of an antioxidant (NAC)
- toxicity to normal cells [3]: not toxic to normal cells at high concentration
- cell viability / cytotoxicity in combination with FeSO4 (MTT) ([4]; C6 cells first exposed to FeSO4 50-150 μM for 2 h, then Cur-[G2]-OH 240 or 300 μM, or administered simultaneously): This synergism does not exist
- cell viability / cytotoxicity in combination with FeSO4 (MTT) ([4]; C6 cells pre-incubated with Cur-[G2]-OH 240 or 300 μM for 4 h, then FeSO4 50-150 μM for 20 h): synergism between Cur-[G-2]-OH and FeSO4
- DNA fragmentation (agarose gel electrophoresis) [5]: DNA remains packed and does not migrate into the gel
- expression of Beclin1 (Western blot) [6, 11]: increases the expression of Beclin1
- expression of p62 (Western blot) [6, 11]: decreases the expression of p62
- total levels of the Nrf2 protein (immunoblot) ([6]; Cur-[G2]-OH 300 μM, vs untreated cells): significant decrease in Total levels of the Nrf2 protein
- levels of total eIF2-α (immunoblot) ([6]; 24 h): without substantial changes in the levels of total eIF2-α
- phosphorylation of eIF2-α (p-eIF2-α, immunoblot) ([6]; 24 h): significant decrease in phosphorylation of eIF2-α
- expression of Beclin1 (immunofluorescence) [7]: induces the expression of proteins Beclin1 and LC3, in a concentration-dependent manner
- expression of LC3 (immunofluorescence) [7]: induces the expression of proteins Beclin1 and LC3, in a concentration-dependent manner
- expression of p62 (immunofluorescence) [7]: significantly decreasing expression of p62
- decrease at GSH levels ([8]; 300 μM, 24 h): about 50%
- GSH levels ([8]; 300 μM, 48 hours, data not shown): complete elimination of GSH levels
- baseline levels of GSH ([8]; intermediate doses 45 and 90 μM, 24 hours): causes the baseline levels of GSH to increase considerably
- nuclear staining / apoptotic morphology (propidium iodide and Hoechst 33342) [9]: staining of the nuclei similar to that of the untreated controls
- stability in acidic pH [10]: instability of Cur-[G-2]-OH in the acidic pH of gastric juices

Structure (SMILES): COc1cc(/C=C/C(=O)CC(=O)/C=C/c2ccc(O)c(OC)c2)ccc1O [curcumin, reference compound]
- generation of ROS [2]: less effective at producing ROS
- generation of ROS in the presence of N-acetyl Cysteine (NAC) [2]: slightly amplified with the use of NAC
- DNA fragmentation (agarose gel electrophoresis) [5]: DNA fragmentation was only evident in cells treated with curcumin
- levels of total eIF2-α (immunoblot) ([6]; 24 h): increases both the levels of total eIF2-α
- phosphorylation of eIF2-α (p-eIF2-α, immunoblot) ([6]; 24 h): increases both the levels of total eIF2-α, and the levels of p-eIF2α
- nuclear staining / apoptotic morphology (propidium iodide and Hoechst 33342) [9]: chromatin condensation (stars), nuclear fragmentation (thin arrows) and apoptotic bodies (arrowheads)
